Measurements from patent US20100331336A1, “PROTECTIVE EFFECT OF HIGH DOSE FOLATE ON MYCARDIAL ISCHEMIA” (Universiteit Antwerpen, priority 2008, published 2010).

Tests used:
[1] = tested on: myocardial superoxide; experiment: Myocardial superoxide by lucigenin-enhanced chemiluminescence; format: in vivo, rat; conditions: for decline of O2^− generation on pre-incubation of extracts: 100 μM BH4
Protocol: (§1) Adult Wistar rats received FA (10 mg/day unless otherwise stated) or placebo by oral gavage for 7-days prior to performing the ischemia/reperfusion (IR) experiment. A total of 131 rats were used, the sample size reflecting the requirement for multiple assays that could not be performed in each animal, but were rather obtained in different subsets of the total group. Animals were anesthetized (pentobarbital 60 mg/kg), intubated via tracheotomy, and ventilated (Harvard Apparatus, Mass.). ECG was monitored and temperature maintained at 37.5° C. The left anterior artery was exposed through the 4-5th intercostal space and a suture placed around it, and transient coronary artery ligation performed for 30 min with (n=85) or without (n=46) 90 min reperfusion. In one subgroup of reperfused animals (n=9), FA was provided 10 minutes after the onset of LAD occlusion (i.e. 20 minutes before the onset of reperfusion), delivered as an IV-bolus.
(§2) Superoxide was assessed by lucigenin (5 μM)-enhanced chemiluminescence (Beckman LS60001C, n=23)^22 and fluorescent microtopography (dichlorodihydro-fluorescein diacetate, DCF, n=16) and dihydroethidium, DHE, n=24) (Gupte et al., 2005). The direct anti-oxidants effects of folic acid were analysed using an in vitro xanthine/xanthine oxidase system (Antoniades et al., 2006) and compared with Tempol.

[2] = tested on: Adult Wistar rats, coronary artery ligation; experiment: Ischemia and reperfusion arrhythmia, in vivo IR; parameters: species or system rat
Protocol: as §1

[3] = tested on: isolated hearts of adult Wistar rats; experiment: In vitro IR model, isolated perfused hearts: infarct size and LDH; parameters: species or system rat
Protocol: (§3) Adult Wistar rats (n=28) were anesthetized (pentobarbital 60 mg/kg), and hearts rapidly excised and mounted onto a retrograde perfusion system (Emka, Paris, France) using warmed, oxygenated buffered Krebs-Henseleit solution at constant perfusion pressure (75 mmHg). Hearts were paced at 300 bpm, and maintained in an unloaded state. Coronary flow was measured by an in-line ultrasonic flow probe (Transonic Systems, Ithaca, N.Y., USA). After 30 min equilibration, vasodilators drugs (bradykinin and sodium nitroprusside) were infused by bolus injection (50 μl, 10^−8-10^−5.5 M i.c.) and coronary flow reserve assessed at constant perfusion pressure. After re-establishing baseline, hearts received FA (4.5 10^−6M i.c.) or vehicle for 30 min. Afterwards the hearts were subjected to 40-min zero coronary flow followed by 40 min of reperfusion. Coronary effluent was collected, concentrated (Sartorius-Sipan, Lier, Belgium) and analysed for lactate dehydrogenase (Vitros 950AT, O. C. D., Beerse, Belgium). Coronary vasodilator responses to the same two agents were repeated following reperfusion.
(§4) Infarct size was assessed in 31 rats, with area at risk (AAR) determined by negative staining with Evans blue injected during coronary occlusion, and subsequent staining with TTC to detect myocardial necrosis. LV (free wall+whole septum), AAR (neg Evan's Blue) and area of necrosis (TTC-white) were measured by planimetry (Soft Imaging system GmbH, Analysis pro version 3.00), and digitized images subjected to equivalent background subtraction, brightness, and contrast enhancement for improved clarity and sharpness. For in vitro studies, TTC staining was not preceded by Evans' blue staining because global ischemia was created. Contraction band necrosis was assessed in vivo rat hearts (n=22) fixed in Carnoy solution and stained with Masson's trichrome. Serial adjacent fields were examined throughout the full LV to calculate the percent myocardium with contraction bands present. Similar analysis was performed for TUNEL-positivity (Chemicon Intern, Temecula, Calif.), also expressed as percent LV area.

[4] = tested on: eNOS; experiment: eNOS monomer/dimer formation and NOS enzymatic activity in IR tissue; format: in vivo, rat
Protocol: as §1
SDS-resistant eNOS dimers and monomers were assayed on ischemia/reperfusion-tissue (n=16) using low temperature SDS-PAGE as previously described (Takimoto. et al., 2005) NOS enzymatic activity was assessed by arginine to citrulline conversion assay from extracts obtained from frozen myocardium (n=15) (Takimoto. et al., 2005).

[5] = tested on: Adult Wistar rats, coronary artery ligation; experiment: Infarct size analysis and histology, in vivo IR; parameters: species or system rat
Protocol: as §1, §4

[6] = tested on: serum homocysteine; conditions: achievable with 0.8 mg/d; cited from earlier work
[7] = tested on: superoxide generated by xanthine/xanthine oxidase; experiment: In vitro xanthine/xanthine oxidase O2− generating system; format: biochemical; conditions: lucigenin-enhanced chemiluminescence, FIG. 5F
Protocol: as §2

[8] = tested on: Adult Wistar rats, coronary artery ligation; experiment: Open chest echocardiography during LAD occlusion; format: in vivo, rat; conditions: FA pre-treatment; at 30 min ischemia
Protocol: as §1
(§5) LV function was assessed in vivo by pressure-volume loops (n=14) during both ischemia and following reperfusion. […] Open chest myocardial anterior wall motion was also measured using a Sequoia—Acuson C256 equipped with 15 MHz linear transducer (Sequoia C256 Echocardiography System, Acuson Corporation, Mountain View, Calif.) at the parasternal view of the left ventricle chamber as described.

[9] = tested on: isolated hearts of adult Wistar rats; experiment: Coronary flow and vasodilator response in isolated hearts; parameters: species or system rat
Protocol: as §3

[10] = tested on: Adult Wistar rats, coronary artery ligation; experiment: HPLC analysis of high energy phosphate metabolism in anterior wall samples; format: in vivo, rat; conditions: FA pre-treatment; 30 min ischemia, versus controls
Protocol: as §1, with “In one subgroup of reperfused animals (n=9), FA was provided 10 minutes after the onset of LAD occlusion (i.e. 20 minutes before the onset of reperfusion), delivered as an IV-bolus.” left out
Snap frozen samples (n=24) from the anterior wall (±FA pre-treatment; ±30 min ischemia, no reperfusion) were de-proteinized and subjected to HPLC analysis of water-soluble low-molecular weight compounds reflecting tissue oxid-oreductive and energy status. High-energy phosphates, oxypurines (hypoxanthine, xanthine, and uric acid), nucleosides (inosine and adenosine), malondialdehyde, and reduced and oxidized glutathione were measured by ion-pairing HPLC as described (Takimoto et al., 2005).

[11] = tested on: Adult Wistar rats, coronary artery ligation; experiment: In vivo ischemia/reperfusion model, pressure-volume loop hemodynamics; parameters: species or system rat; conditions: FA 10 mg/d oral pre-treatment 7 days; 30 min LAD occlusion
Protocol: as §1, §5

[12] = tested on: Adult Wistar rats, coronary artery ligation; experiment: Regional myocardial blood flow by microspheres; format: in vivo, rat; conditions: FA pre-treatment
Protocol: as §1
Regional myocardial blood flow was assessed (n=12) by nuclear-activated microspheres ([…], BioPal, Worcester, MA) injected in the left atrium (0.3 ml of 2.5*10^6 spheres/ml) at baseline and after 5 and 30 min of ischemia (Reinhardt et al., 2001). Total counts per minute (cpm) were normalized to weight and results from the ischemic zone normalized to the remote region to provide relative blood flow before and during ischemia.

[13] = FA 10 mg i.v. after 10 min of coronary occlusion

C[C@H](O)[C@H](O)[C@H]1CNc2nc(N)[nH]c(=O)c2N1 [BH4, tetrahydrobiopterin]
decline of O2^− generation on pre-incubation of extracts ([1]; extracts of FA pre-treated hearts): 52.1±11.3%
decline of O2^− generation on pre-incubation of extracts ([1]; extracts of vehicle treated IR hearts): 90.9±0.7%

Nc1nc2ncc(CNc3ccc(C(=O)N[C@@H](CCC(=O)O)C(=O)O)cc3)nc2c(=O)[nH]1 [FA, folic acid]
reperfusion arrhythmia occurrence ([2]; FA treated): no FA treated animal
lethal ventricular arrhythmia triggered by ischemia, % of rats ([2]; FA-treated): 8.3%
infarct size in isolated hearts ([3]; FA 4.5 10^−6M i.c. 30 min, 40 min zero flow, 40 min reperfusion): 7.7±2.8%
reduction of myocardial necrosis in hearts studied in vitro ([3]; FA pre-treatment, FIG. 4D): ~80%
lactate dehydrogenase in the coronary effluent ([3]; FA pre-treatment, after ischemia-reperfusion): less lactate dehydrogenase
eNOS ratio of dimer/monomer ([4]; FA-pre-treated IR hearts): near normal
NOS activity, arginine-citrulline conversion ([4]; treated vs. non-treated hearts, p=0.08): not significant improved
TUNEL staining, % LV [5, 13]: 4.3±1.3 % LV
area at risk (AAR) [5, 13]: 52.4±5.5%
contraction band necrosis, % LV [5, 13]: 5.1±0.7 % LV
infarct size relative to AAR ([5]; FA 10 mg i.v. after 10 min of coronary occlusion, n=5): 3.0±2.2%
infarct size, % area at risk ([5]; oral FA 10 mg/d pre-treatment 7 days, 30 min ischemia, 90 min reperfusion): 3.8±1.2%
Reperfusion contraction band necrosis, % of the LV ([5]; oral FA pre-treatment, IR): 4.6%±1.2
TUNEL-positive myocytes, % of LV fields ([5]; oral FA pre-treatment, IR): 4.3±1.3%
infarct size with lower doses ([5]; pre-treatment by 40% and 10% of the principal FA dose (1 and 4 mg/d)): decline in infarct size occurred
decrease in serum homocysteine [6]: 3 µmol/L
decline of myocardial superoxide (lucigenin chemiluminescence) ([1]; FA pre-treated animals, during ischemia and after 90 minutes reperfusion): ~50%
direct anti-oxidant effect [7]: substantial anti-oxidant effects
Ejection fraction [8]: 72.8±1.2%
anterior-septal thickening [8]: 37.±5.3%
Bradykinin induced maximal rise in coronary flow ([9]; after IR, hearts pre-treated with FA): 122.0±11.3%
coronary flow after ischemia ([9]; isolated hearts): 8.9 ± 1.4 mL/min
coronary flow at baseline ([9]; isolated hearts): 11.4 ± 13.8 mL/min
myocardial ATP and ADP during ischemia [10]: maintained at higher levels
Peak LV pressure (systolic blood pressure) change with LAD occlusion [11]: changed little
ratio of ischemic/remote zone myocardial perfusion, decline ([12]; after 5 min of LAD ligation): −77.7±5.1%
flow compared to the remote region ([12]; at 30 minutes of ischemia): −78.4±9.3%
